Experimental data from paper PMC9170688, “Gametocyte-specific and all-blood-stage transmission-blocking chemotypes discovered from high throughput screening on Plasmodium falciparum gametocytes” (Communications Biology, 2022).
Entries after “also recorded” stand apart in the source; their conditions may differ. Read-outs that look alike come from different tables or passages of the source.

Legend:
[1] = test system: P. falciparum NF54 male gametocytes (stage V); test: Male gamete exflagellation assay; assay type: cell-based, Plasmodium falciparum; conditions: for Inhibition of male exflagellation at 1 µM: 48 h; for activity at 1 µM: Plasmodium falciparum
Experimental: The above selected 30 compounds were subjected to a phenotypic male gamete exflagellation assay. This assay measures the viability of male gametocytes by quantitating the final step of maturation into motile microgametes in vitro[24]. This process naturally occurs in the mosquito gut within minutes from the blood meal. The acquisition of time lapse videos of gamete motility in bright field microscopy and the subsequent analysis to count exflagellation centres were performed in an automated HTS format in 384-well plates. The compounds were tested in two independent biological replicates at the concentration of 1 µM. […] The results of this study led to the identification of 16 compounds with anti-exflagellation activity (Fig. 4). […] The standard membrane feeding assay (SMFA) is used to measure the parasite transmission through mosquito. In this assay, mature stage V gametocytes of the P. falciparum strain NF54-hsp70-luc were treated with 1 and 10 µM of the nine selected compounds for 24 h, added with human red blood cells and serum to achieve a haematocrit of 50% and then fed to mosquitoes. Luminescence was analyzed in […] 8 days post-feeding.
Asexual parasites of the NF54 line, kindly obtained from Elena Levashina’s laboratory (Max Plank Institute for Infection Biology, Berlin, Germany), were seeded at 1% total parasitemia and grown for 16 days changing medium every day until development of stage V gametocytes (about 1–2% of stage V gametocytemia). 100 µl of gametocyte culture was seeded in each well of a 96 well-plate and 100 µl of 2× concentration of compounds or DMSO as control were added to each well to achieve the desired final concentration. Assay plates were incubated for 48 h at 37 °C in 4% CO2, 3% O2, and 93% N2 modified atmosphere. After the incubation period, 100 µl of medium were removed from each well and the other 100 µl were transferred to a black imaging 96 well plate (ibidi) containing 100 µl of complete medium supplemented with 40 µM of xanthurenic acid. After 15 min, exflagellation events were captured by three ten-second videos each well with an Olympus IX83 inverted microscope with a UPLSAPO 10× N.A. 0.75 objective (Olympus, Japan), equipped with a Hamamatsu ORCA-Flash 4.0 V3 camera. Each video was analyzed using the Icy bio-image analysis software (http://icy.bioimageanalysis.org/) to count the number of exflagellation events.

[2] = test system: P. falciparum NF54 pfs16-GFP-PyLUC gametocytes; test: P. falciparum gametocyte luminescence assay (PfLuc), line NF54 pfs16-GFP-PyLUC; assay type: cell-based, Plasmodium falciparum; conditions: Plasmodium falciparum, NF54, read-out: Pf Gametocytes NF54 pfs16 (IC50 nM)
Experimental: (§1) To exclude false positive compounds that may interfere with the click beetle CBG99 luciferase signal and to confirm the activity on gametocytes produced by other P. falciparum lines, we tested the above 638 compounds at a single concentration of 10 µM on gametocytes from two NF54 strain derived lines: pfs16-GFP-PyLUC (Photinus pyralis luciferase under the same pfs16 promoter)[14],[16],[27] and hsp86-PpyRE13 that was generated for this work to express the mutated Photinus pyralis PpyRE13 luciferase in gametocytes under the promoter of the pfhsp86 gene.
(§2) With the selected 84 compounds, the subsequent step aimed at determining the gametocyte inhibition potency and the parasite stage selectivity between the gametocytes and the asexual stages in the NF54 hsp86-PpyRE13. […] Similar data were obtained considering the gametocyte IC50 values measured in the NF54 pfs16-GFP-PyLUC strain (see Supplementary Data 2).
(§3) Parasite gametocyte luminescence assays were performed in 384-well plates (Thermo, 4332, USA) by infected red blood cells seeded at 40 µL/well at a haematocrit of 0.625% for the strain 3D7elo1-pfs16-CBG99, 1.875% for both strains NF54 hsp86-PpyRE13 and NF54 pfs16-GFP-PyLUC. Assay were performed in the medium: 10.44 g/L RPMI 1640 Medium (Gibco, 51800043), 5.95 g/L HEPES (Sigma, H4034), 50 mg/L Hypoxantine (Sigma, 56700), 10% heat inactivated human serum, 10 ml of Neomycin solution (Sigma, N1142) and 2.1 g/L NaHCO3 (Sigma, 144-55-8). Compounds or DMSO as control were pre dispensed on plates, from 10 mM DMSO stock solutions, via an acoustic droplet ejection device (ATS-100, EDC Biosystems) to achieve the final desired concentration. Assay plates were incubated for 48 h at 37 °C in 4% CO2, 3% O2, and 93% N2 modified atmosphere. After incubation, 20 µL/well of a solution of luciferin (Regis, 1-360242-200) potassium/sodium salt (300 µg/ml) are added to the assay plates and read at suitable luminescence detection after 1 min incubation at room temperature. The whole HTS was performed in 7 rounds of 30–80 plates each in two months’ time.

[3] = test system: P. falciparum strain NF54-hsp70-luc stage V gametocytes fed to Anopheles stephensi mosquitoes; test: whole plant or invertebrate; assay type: in vivo, Plasmodium falciparum; conditions: for transmission blocking activity in SMFA (words, rank): tested at 1 and 10 µM
Experimental: The above selected 30 compounds were subjected to a phenotypic male gamete exflagellation assay. This assay measures the viability of male gametocytes by quantitating the final step of maturation into motile microgametes in vitro[24]. This process naturally occurs in the mosquito gut within minutes from the blood meal. The acquisition of time lapse videos of gamete motility in bright field microscopy and the subsequent analysis to count exflagellation centres were performed in an automated HTS format in 384-well plates. The compounds were tested in two independent biological replicates at the concentration of 1 µM. […] The standard membrane feeding assay (SMFA) is used to measure the parasite transmission through mosquito. In this assay, mature stage V gametocytes of the P. falciparum strain NF54-hsp70-luc were treated with 1 and 10 µM of the nine selected compounds for 24 h, added with human red blood cells and serum to achieve a haematocrit of 50% and then fed to mosquitoes. Luminescence was analyzed in the mosquito salivary glands 8 days post-feeding.
SMFA was performed commercially by TropiQ Health Sciences (Nijmegen, The Netherlands). Test samples were diluted in DMSO and then in RPMI medium (Gibco, 51800043) to achieve a final DMSO concentration of 0.1%. Diluted samples were combined with stage V gametocytes from P. falciparum strain NF54-hsp70-luc and incubated for 24 h. Subsequently, human red blood cells and human serum with the sample were added to achieve a haematocrit of 50%. The blood meal was fed to two-day old Anopheles stephensi mosquitoes that were starved the night prior to the blood meal. […] Mosquito infection was analyzed 8 days post-feeding by luminescence measurements of whole mosquitoes as described previously. For each feeder, luminescence intensity was analyzed in 15–24 mosquitoes per feeder (N = 1, n = 15–24). Luminescence background levels were determined from 15–24 uninfected mosquitoes. Controls: vehicle (0.1% DMSO) in duplicate.

[4] = test system: P. falciparum NF54 hsp86-PpyRE13 gametocytes; test: P. falciparum gametocyte luminescence assay (PfLuc), line NF54 hsp86-PpyRE13; assay type: cell-based, Plasmodium falciparum; conditions: for IC50: Plasmodium falciparum, NF54, read-out: Pf Gametocytes NF54 HSP86 (IC50 nM); for gametocyte specificity / selectivity (gametocytes vs asexual stages): NF54 hsp86-PpyRE13, ratio of asexual stage (pLDH) to gametocyte (PfLuc) IC50
Experimental: as §1, §2, §3

[5] = NF54, read-out: Exflagellation @ 1 uM (% of DMSO) 1
[6] = NF54, read-out: Exflagellation @ 1 uM (% of DMSO) 2

## OC(c1ccc(Cl)cc1)C1CCN(CCCN2CCC(C(O)c3ccc(Cl)cc3)CC2)CC1 (stereo not shown) [Compound 13]
[1]; 1 µM, Replicate 1
  Inhibition of male exflagellation at 1 µM: 15.4
[1]; 1 µM, Replicate 2
  Inhibition of male exflagellation at 1 µM: 64.1
[1]; [5]
  activity at 1 µM: 15.4%
[1]; [6]
  activity at 1 µM: 64.1%
[2]
  IC50: 582 nM
[3]; 1 µM
  SMFA (average # of events) 1 µM: 488.21 ± 436.95
[3]
  SMFA (average # of events) 10 µM: 7.92 ± 1.44
[3]; 24 h treatment
  transmission blocking activity in SMFA (words, rank): second most active
[4]
  IC50: 1600 nM

## Cc1ccc2nc(-c3ccccc3)c(CSc3cccc[n+]3[O-])n2c1 [Compound 16]
[1]; 1 µM, Replicate 1
  Inhibition of male exflagellation at 1 µM: 23.1
[1]; 1 µM, Replicate 2
  Inhibition of male exflagellation at 1 µM: 19.2
[1]; [5]
  activity at 1 µM: 23.1%
[1]; [6]
  activity at 1 µM: 19.2%
[2]
  IC50: 167 nM
[3]; 1 µM
  SMFA (average # of events) 1 µM: 1226.92 ± 1130.89
[3]
  SMFA (average # of events) 10 µM: 9.5 ± 9.34
[3]; 24 h treatment
  transmission blocking activity in SMFA (words, rank): third most active
[4]
  gametocyte specificity / selectivity (gametocytes vs asexual stages): around 6 fold
  IC50: 219 nM

## COc1ccccc1Cn1cc2c(-c3ccc(F)cc3)nnc-2c2cc(OC)c(OC)cc21 [Compound 31]
[1]; 1 µM, Replicate 1
  Inhibition of male exflagellation at 1 µM: 80.597
[1]; 1 µM, Replicate 2
  Inhibition of male exflagellation at 1 µM: 111.628
[1]; [5]
  activity at 1 µM: 80.6%
[1]; [6]
  activity at 1 µM: 112%
[2]
  IC50: 277 nM
[3]; 1 µM
  SMFA (average # of events) 1 µM: 2637.13 ± 1570.14
[3]
  SMFA (average # of events) 10 µM: 1559.87 ± 983.2
[3]; 24 h treatment
  transmission blocking activity in SMFA (words, rank): moderate transmission blocker
[4]
  IC50: 496 nM

## Clc1ccc(Nc2nc(-c3ccccn3)cs2)nc1 [Compound 39]
[1]; 1 µM, Replicate 1
  Inhibition of male exflagellation at 1 µM: 30.5085
[1]; 1 µM, Replicate 2
  Inhibition of male exflagellation at 1 µM: 73.2558
[1]; [5]
  activity at 1 µM: 30.5%
[1]; [6]
  activity at 1 µM: 73.3%
[2]
  IC50: 308 nM
[3]; 1 µM
  SMFA (average # of events) 1 µM: 1612.33 ± 1234.03
[3]
  SMFA (average # of events) 10 µM: 7.33 ± 2.82
[3]; 24 h treatment
  transmission blocking activity in SMFA (words, rank): efficiently blocks parasite transmission
[4]
  IC50: 382 nM

## COc1cc(CNCC2CCNCC2)ccc1OCc1cccc(Cl)c1 [Compound 53]
[1]; 1 µM
  male gamete exflagellation reduced to: 20–30%
[1]; 1 µM, Replicate 1
  Inhibition of male exflagellation at 1 µM: 19.2
[1]; 1 µM, Replicate 2
  Inhibition of male exflagellation at 1 µM: 35.9
[1]; [5]
  activity at 1 µM: 19.2%
[1]; [6]
  activity at 1 µM: 35.9%
[2]
  IC50: 876 nM
[3]; 1 µM
  SMFA (average # of events) 1 µM: 10.04 ± 12.81
[3]; 1 µM, 24 h treatment
  transmission blocking in SMFA: most active; also recorded: equivalent to that of the positive control MMV0048
[3]
  SMFA (average # of events) 10 µM: 6.29 ± 1.85
[3]; read-out: inhibition of parasite transmission (SMFA)
  inhibition at 1 µM: ~100%
[4]
  IC50: 1820 nM

## Cc1ccc(Nc2cc(C)nc(Nc3ccc(NC(=O)c4cc5ccccc5oc4=O)cc3)n2)cc1 [Compound 63]
[1]; 1 µM, Replicate 1
  Inhibition of male exflagellation at 1 µM: 62.7119
[1]; 1 µM, Replicate 2
  Inhibition of male exflagellation at 1 µM: 21.3333
[1]; [5]
  activity at 1 µM: 62.7%
[1]; [6]
  activity at 1 µM: 21.3%
[2]
  IC50: 225 nM
[3]; 1 µM
  SMFA (average # of events) 1 µM: 2365.33 ± 1952.29
[3]
  SMFA (average # of events) 10 µM: 6.33 ± 1.79
[4]
  IC50: 1870 nM

## COc1ccc(Nc2cc(C)nc(Nc3ccc(NC(=O)c4cc(C)cc(C)c4)cc3)n2)cc1 [Compound 64]
[1]; 1 µM, Replicate 1
  Inhibition of male exflagellation at 1 µM: 108.475
[1]; 1 µM, Replicate 2
  Inhibition of male exflagellation at 1 µM: 123.2
[1]; [5]
  activity at 1 µM: 108%
[1]; [6]
  activity at 1 µM: 123%
[2]
  IC50: 264 nM
[3]; 1 µM
  SMFA (average # of events) 1 µM: 3707.46 ± 3510.94
[3]
  SMFA (average # of events) 10 µM: 3885.67 ± 4295.41
[4]
  IC50: 215 nM

## COc1ccc(NC(=O)Nc2ccc(Nc3nc(C)cc(Nc4ccc(C)cc4)n3)cc2)cc1 [Compound 65]
[1]; 1 µM, Replicate 1
  Inhibition of male exflagellation at 1 µM: 5.085
[1]; 1 µM, Replicate 2
  Inhibition of male exflagellation at 1 µM: 52.8
[1]; [5]
  activity at 1 µM: 5.08%
[1]; [6]
  activity at 1 µM: 52.8%
[2]
  IC50: 480 nM
[3]; 1 µM
  SMFA (average # of events) 1 µM: 4000.86 ± 3085.37
[3]
  SMFA (average # of events) 10 µM: 5.96 ± 1.99
[4]
  IC50: 431 nM

## O=C(c1ccc([N+](=O)[O-])o1)N1CCC(Cn2cnc3ccccc32)CC1 [Compound 69]
[1]; [5]
  activity at 1 µM: 17.3%
[1]; [6]
  activity at 1 µM: 57.7%
[2]
  IC50: 555 nM
[3]; 1 µM
  SMFA (average # of events) 1 µM: 2021.92 ± 1839.86
[3]
  SMFA (average # of events) 10 µM: 6.17 ± 1.81
[4]
  gametocyte specificity / selectivity (gametocytes vs asexual stages): around six
  IC50: 1500 nM
